According to US20250003972A1, “A METHOD OF DETERMINING THE PRESENCE OF AN ANALYTE IN A SAMPLE” (Valitacell Limited, priority 2021, published 2025):

Tested on: non-monomer IgG
Assay: DAOTA fluorescence polarisation (FP) assay: HMWS IgG (non-monomer) spiked into monomer IgG in culture media
Format: binding
Conditions: cell culture media; FP (mP) signal vs percentage non-monomer
Procedure: Non-monomer IgG was sourced internally. This was obtained by size exclusion chromatography from Chinese Hamster Ovary (CHO) cell supernatant (this is a naturally occurring non-monomer IgG).
FP readings were made using an BMG Pherastar plate reader (BMG, […], Germany) in black half area NBS plates in a total of 120 ul (Corning, New York, USA).
For DAOTA FP assays, high molecular weight species (HMWS) of IgG (non-monomer) was spiked into monomer IgG in various proportions in 120 ul total of culture media (CD-CHO, ThermoFisher, UK) at a constant at a concentration of 200 mg/L. 0.1 ug of an N′-propyl, N-propyl derivative of diazaoxatriangulenium (N′PNP-DAOTA) was added, and the polarization signal was measured after 5 minutes incubation in the dark.

Row | Compound | binding to non-monomer IgG / IgG aggregates (FP polarisation signal)
1 | CCCn1c2cccc3oc4cccc5c4[c+](c32)c2c1cccc2n5CCC [N′PNP-DAOTA, N′-propyl, N-propyl derivative of diazaoxatriangulenium] | binds to non-monomer IgG
2 | N-butanoic acid aza-di-oxa-triangulenium [N-Phenyl-ADOTA] | did not bind to IgG aggregates
